Measurements: PMC4015918, “Conjugation to a SMAC mimetic potentiates sigma-2 ligand induced tumor cell death in ovarian cancer” (Molecular Cancer, 2014)
Entries after “also recorded” stand apart in the source; their conditions may differ.

Tests used:
[1] = tested on: mouse 66 (mammary carcinoma) or MDA-MB-435 cells (human melanoma); set-up: method as in PMID 22201533; details: nude mice bearing mouse 66 or MDA-MB-435 tumors; cited from earlier work
SKOV3 cells = assay: Blocking study: competition with uptake of fluorescent sigma-2 ligand SW120, flow cytometry; assay type: cell-based; details: SKOV3 cells pretreated 30 min with increasing concentrations, then 10 nM SW120 for 30 min
Protocol: Figure 1 Compound structures and cell binding characteristics of SW IV-134. (A) The chemical structures of sigma-2 ligand SW43, the SMAC peptidomimetic SW IV-52, and the chemical conjugate SW IV-134. Note that the chirality of SW IV-52 is fully retained in the drug conjugate (asterisks). […] SKOV3 cells were pretreated with increasing concentration of SW IV-134, followed by incubation with SW120, prior to analysis by flow cytometry.
SKOV3 cells (3 × 10^4/well) were seeded into 6 cm plates for 24 hours before treatment. The cells were incubated with 5, 10, 50, and 100 μM doses of SW IV-134 for 30 minutes at 37°C. After this step, 10 nM SW120 was added to the cell culture medium containing SW IV-134. After 30 minute incubation at 37°C, cells were washed twice with phosphate buffered saline (PBS) and harvested with 0.05% trypsin EDTA (Life Technologies, Grand Island, NY). The cells were centrifuged at 1000 × g for 5 minutes and pellets washed twice with PBS. Internalization of SW120 was determined by flow cytometer (FACSCalibur, BD Biosciences, San Jose, CA).
Supplementary file 1476-4598-13-50-S2.pdf: Additional file 2: Figure S1 Receptor binding characteristics of the individual components of SW IV-134. SKOV3 cells were pretreated with increasing concentration of (A) SW43 and (B) SW IV-52, followed by incubation with SW120, prior to analysis by flow cytometry. […] Click here for file

[2] = tested on: ovarian cancer cell lines (SKOV3, OVCAR3, HEY A8, HEY A8 MDR); assay: Cell viability (CellTiter-Glo) in a panel of four ovarian cancer cell lines; assay type: cell-based; details: increasing doses, 18 hours
Protocol: (A) SKOV3, (B) OVCAR3 (C) HEY A8 and (D) HEY A8 MDR cells were treated with increasing doses of SW43, SW IV-52, SW43 plus SW IV-52, and SW IV-134 for 18 hours. Cell viability was determined by CellTiter-Glo assays [p < 0.015 (A), NS (B), p < 0.017 (C), p < 0.034 (D), one-way ANOVA].
Cells (1 × 10^4) were seeded into 96 well plates. Treatment as described in the figure legends was initiated the following day. Cell viability was determined 18 hours after treatment using CellTiter-Glo Luminiscent Viability Assay (Promega, Madison, WI). Data were recorded with a SpectraMax Gemini microplate spectrofluorometer, Molecular Devices (Silicon Valley, CA).

Structure (SMILES) | Tumor-selective uptake of SW120 in vivo [1] | Blocking of SW120 uptake (SKOV3 cells) | Killing activity (cell viability) [2]
COc1ccc(C)cc1NC(=O)OC1CC2CCCC(C1)N2CCCCCCCCCCNc1ccc([N+](=O)[O-])c2nonc12 (stereo not drawn) [SW120] | taken up selectively by proliferating tumor cells and not by the generally quiescent peripheral blood mononuclear cells | – | –
CN[C@@H](C)C(=O)N[C@H](C(=O)N1CCC[C@H]1C(=O)N[C@@H]1CCCc2ccccc21)C(C)(C)C [SW IV-52] | – | nearly incapable of blocking the uptake of SW120; also recorded: nearly incapable of interfering with the uptake of SW120 | minimal single-agent activity at concentrations up to 200 μM
